Earlier results in patent US20210181182A1, “METHOD FOR IDENTIFICATION OF PERTURBAGENS OF PARTICULAR BIOLOGICAL PROCESSES AND CELL SYSTEMS WITHIN LIVING CELLS” (priority 2018, published 2021).
Marks after values point to notes of the source that are not given here.

test system: mitochondria membrane potential; conditions: HepG2, 1-hour incubation at concentrations below 60 μM; cited from earlier work

SMILES	MMP assay hitCall
C[C@@]1(c2ccc(Oc3ccccc3)cc2)OC(=O)N(Nc2ccccc2)C1=O (racemic) [Famoxadone]	1
COC(C=C(C)CCC=C(C)C)OC [1,1-Dimethoxy-3,7-dimethylocta-2,6-diene]	0
CCC(=O)C=Cc1ccc(OC)cc1 [1-(4-Methoxyphenyl)-1-pentene-3-one]	0
Fc1cccc(Cl)c1CCl [1-Chloro-2-(chloromethyl)-3-fluorobenzene]	0
CC(C)(C)C(=O)CCl [1-Chloro-3,3-dimethyl-butan-2-one]	0
CCCCCCCCCCCCN1CCCC1=O [1-Dodecyl-2-pyrrolidinone]	0
C=CC(O)CCCCC (centres unmarked) [1-Octen-3-ol]	0
c1cc(C(c2ccc(OCC3CO3)cc2)c2ccc(OCC3CO3)cc2)ccc1OCC1CO1 (centres unmarked) [2,2′,2″-[Methanetriyltris(benzene-4,1-diyloxymethanediyl)]trioxirane]	0
Oc1c(Br)cc(Br)cc1Br [2,4,6-Tribromophenol]	1
CC=CC=CCOC(=O)C(C)C [2,4-Hexadienyl isobutyrate]	0
CCC(C)(C)c1cc(O)c(C(C)(C)CC)cc1O [2,5-Bis(2-methylbutan-2-yl)benzene-1,4-diol]	1
CC(C)(C)c1cc(O)c(C(C)(C)C)cc1O [2,5-Di-tert-butylbenzene-1,4-diol]	1
CC(C)(C)c1cc([N+](=O)[O-])cc(C(C)(C)C)c1O [2,6-Di-tert-butyl-4-nitrophenol]	1
C=CC(=O)OCCOCCOCC [2-(2-Ethoxyethoxy)ethyl prop-2-enoate]	0
Cl.ClCc1ccccn1 [2-(Chloromethyl)pyridine hydrochloride]	0
Oc1ccc(-c2ccccc2)cc1Cl [2-Chloro-4-phenylphenol]	1
O=C(CCl)Nc1ccccc1 [2-Chloro-N-phenylacetamide]	0
O=C(CCl)c1ccccc1 [2-Chloroacetophenone]	0*
C=CC(=O)OCCC#N [2-Cyanoethyl prop-2-enoate]	0
C=CC(=O)OCCO [2-Hydroxyethyl acrylate]	0*
COc1cc(C)ccc1O [2-Methoxy-4-methylphenol]	0
COc1ccc(O)c(C(C)(C)C)c1 [2-tert-Butyl-4-methoxyphenol]	1
N#Cc1nc(Cl)c(Cl)c(Cl)c1Cl [3,4,5,6-Tetrachloro-2-pyridinecarbonitrile]	1
CC(C)=CCCC(C)=CC=O [3,7-Dimethyl-2,6-octadienal]	0
Cl.ClCc1cccnc1 [3-(Chloromethyl)pyridine hydrochloride]	0
Oc1ccc2c(c1)-c1ccccc1C2 [3-Hydroxyfluorene]	1
CC(C)CC(C)(c1ccc(O)cc1)c1ccc(O)cc1 [4,4′-(4-Methylpentane-2,2-diyl)diphenol]	1

SMILES	MMP assay hitCall
Cl.Nc1ccc(-c2ccccc2)cc1 [4-Biphenylamine hydrochloride]	0
C=Cc1ccc(OC(C)=O)cc1 [4-Ethenylphenyl acetate]	0
CCCCCCc1ccc(O)cc1O [4-Hexylresorcinol]	1
CCCCCCCCCc1ccc(O)cc1 [4-Nonylphenol]	1
CCCc1ccc(O)cc1 [4-Propylphenol]	1
CCc1cccc(CC)c1N(COC)C(=O)CCl [Alachlor]	0*
C=CCC1=C(C)C(OC(=O)C2C(C=C(C)C)C2(C)C)CC1=O (centres unmarked) [Allethrin]	1
Clc1nc(Cl)nc(Nc2ccccc2Cl)n1 [Anilazine]	0
CNC(=O)Oc1cccc2c1OC(C)(C)O2 [Bendiocarb]	0
CCCCN(CC)c1c([N+](=O)[O-])cc(C(F)(F)F)cc1[N+](=O)[O-] [Benfluralin]	0
CC1COc2ccccc2N1C(=O)C(Cl)Cl (centres unmarked) [Benoxacor]	0
CCCCCCCCCCCC[N+](C)(C)Cc1ccccc1.[Cl-] [Benzyldimethyldodecylammonium chloride]	1
O=c1[nH]c2ccc([S+]([O-])CCN3CCC(Cc4ccc(F)cc4)CC3)cc2o1 (centres unmarked) [Besonprodil]	0
COc1ccc(-c2ccccc2)cc1NNC(=O)OC(C)C [Bifenazate]	1
CCC(C)c1cc([N+](=O)[O-])cc([N+](=O)[O-])c1OC(=O)C=C(C)C (centres unmarked) [Binapacryl]	1
c1cc(OCC2CO2)ccc1Cc1ccc(OCC2CO2)cc1 (centres unmarked) [Bis[4-(glycidyloxy)phenyl]methane]	0
CC(C)(c1ccc(O)cc1)c1ccc(O)cc1 [Bisphenol A]	1
Oc1c(Cl)cc(Cl)cc1Sc1cc(Cl)cc(Cl)c1O [Bithionol, reference compound]	1
N#Cc1cc(Br)c(O)c(Br)c1 [Bromoxynil]	1
CCC(C)Nc1c([N+](=O)[O-])cc(C(C)(C)C)cc1[N+](=O)[O-] (centres unmarked) [Butralin]	0
CCOP(=S)(OCC)OC(Cl)C(Cl)(Cl)Cl (centres unmarked) [Chlorethoxyfos]	1
CCOCn1c(-c2ccc(Cl)cc2)c(C#N)c(Br)c1C(F)(F)F [Chlorfenapyr]	1
Oc1ccc(Cl)cc1Cc1ccccc1 [Clorophene]	1
Cc1ccc(-c2c(Cl)nc(C#N)n2S(=O)(=O)N(C)C)cc1 [Cyazofamid]	1
Cc1cc(C2CC2)nc(Nc2ccccc2)n1 [Cyprodinil]	0
CC(=O)O[C@]1(C(C)=O)CC[C@H]2[C@@H]3C=C(Cl)C4=CC(=O)[C@@H]5C[C@@H]5[C@]4(C)[C@H]3CC[C@@]21C [Cyproterone acetate, reference compound]	1

same assay, conditions: cited from earlier work

SMILES	MMP assay hitCall
Nc1ccc(-c2ccc(N)c(N)c2)cc1N [3,3′-Diaminobenzidine]	1
Nc1ccc(N=Nc2ccccc2)cc1 [4-Aminoazobenzene]	0
CCN(CC)c1ccc2c(C)cc(=O)oc2c1 [7-Diethylamino-4-methylcoumarin]	1
Oc1cccc2cccnc12 [8-Hydroxyquinoline]	0
Oc1ccc(C(c2ccc(O)cc2)(C(F)(F)F)C(F)(F)F)cc1 [Bisphenol AF]	1
CN(C)NC(=O)CCC(=O)O [Daminozide]	0
